The experiment has as its system Entamoeba histolytica. As to the kind of experiment: Antiamoebic activity against Entamoeba histolytica. The format is functional, organism-based. The note with it: Entamoeba histolytica; read-out: IC50.

Molecules are shown by their SMILES. Values after ≈ are worked out from the molar mass of the structure shown.

Results on two molecules are retold here after ChEMBL document CHEMBL3046784, “Exploring QSAR of antiamoebic agents of isolated natural products by MLR, ANN, and RTO” (Med Chem Res, 2012).

For the molecule `COc1c(OC)c(O)c2c(=O)cc(-c3ccc(O)cc3)oc2c1OC` [XANTHOMICROL], the half-inhibitory concentration (IC50) was determined as 275 µg/mL (≈ 798 µM).

In the case of `COC(=O)[C@]12OC[C@]34[C@H]([C@@H](O)[C@@H]1O)[C@@]1(C)C=C(O[C@@H]5O[C@H](CO)[C@@H](O)[C@H](O)[C@H]5O)C(=O)[C@@H](C)[C@@H]1C[C@H]3OC(=O)[C@H](OC(C)=O)[C@@H]24` [YADANZIOSIDE F], the IC50 was determined as 2.33 µg/mL (≈ 3.63 µM).

As usually defined, the IC50 is the concentration needed to halve the response being measured.
